Laboratory results as given in patent US20060247244A1, “Quinoxalinones and their use especially in the treatment of cardiovascular diseases” (BAYER HEALTHCARE AG, priority 2002, published 2006).

Target: T1, human M2 acetylcholine receptor (M2AChR) (Homo sapiens, UniProt P08172)
T1 construct: expressed in transfected cells; host or cells: CHO K1 (Chinese hamster ovary) cells constitutively expressing mitochondrially targeted aequorin and stably transfected with Galpha16
T1 sequence (P08172 1-466): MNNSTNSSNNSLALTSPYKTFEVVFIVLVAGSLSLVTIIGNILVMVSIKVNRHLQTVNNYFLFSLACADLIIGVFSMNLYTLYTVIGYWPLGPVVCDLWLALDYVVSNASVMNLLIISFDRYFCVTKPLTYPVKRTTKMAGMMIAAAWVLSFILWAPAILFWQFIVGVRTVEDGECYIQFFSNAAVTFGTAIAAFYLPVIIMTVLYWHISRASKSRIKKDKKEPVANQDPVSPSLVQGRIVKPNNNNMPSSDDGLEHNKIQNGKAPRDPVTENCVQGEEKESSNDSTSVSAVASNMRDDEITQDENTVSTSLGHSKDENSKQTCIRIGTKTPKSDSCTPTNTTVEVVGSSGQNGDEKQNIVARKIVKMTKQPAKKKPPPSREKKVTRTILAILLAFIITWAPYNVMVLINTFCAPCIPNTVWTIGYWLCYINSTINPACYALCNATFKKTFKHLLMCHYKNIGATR
Test: Cellular functional in vitro test (aequorin luminescence in recombinant CHO K1 cells)
Assay type: cell-based
Conditions: agonist activity; CHO K1 cells expressing human M2AChR, aequorin and Gα16; luminescence readout
From the text: A recombinant cell line was used to identify agonists of the human M2 acetylcholine receptor (M2A ChR) and to quantify the activity of the substances described herein. The cell is originally derived from a hamster ovary epithelial cell (Chinese Hamster Ovary, CHO K1, ATCC: American Type Culture Collection, Manassas, Va. 20108, USA). The test cell line constitutively expresses a modified form of the calcium-sensitive photoprotein aequorin which after reconstitution with the cofactor coelenterazine emits light when the free calcium concentration in the inner mitochondrial compartment is increased (Rizzuto R. Simpson A W, Brini M, Pozzan T.; Nature 358 (1992) 325-327). The cell is additionally stably transfected with the human M2AChR (Peralta E G, Ashkenazi A, Winslow J W, Smith D H, Ramachandran J, Capon, D J, EMBO Journal 6 (1987) 3923-3929) and with the gene which codes for the promiscuous Gα16 protein (Amatruda T T, Steele D A, Slepak V Z, Simon M I, Proceedings in the National Academy of Science USA 88 (1991), 5587-5591). The resulting M2AChR test cell responds to stimulation of the recombinant M2ACh receptor with an intracellular release of calcium ions, which can be quantified through the resulting aequorin luminescence with a suitable luminometer (Milligan G, Marshall F, Rees S, Trends in Pharmacological Sciences 17 (1996) 235-237).
Test procedure: The cells are plated out on the day before the test in culture medium (DMEM, 10% FCS, 2 mM glutamine, 10 mM HEPES; Gibco Cat.#21331-020; now belongs to: Invitrogen GmbH, 76131 Karlsruhe) in 384 (or 1536) well microtiter plates and kept in a cell incubator (96% humidity, 5% v/v CO2, 37° C.). On the day of the test, the culture medium is replaced by a Tyrode solution (in mM: 140 NaCl, 5 KCl, 1 MgCl2, 2 CaCl2, 20 glucose, 20 HEPES) which additionally contains the cofactor coelenterazine (50 μM), and the microtiter plate is then incubated for a further 3-4 hours. Immediately after the test substances have been transferred into the wells of the microtiter plate, the resulting light signal is measured in the luminometer.

Molecule	EC50
CC(NC(=O)c1ccc2c(c1)N(C(=O)CNC1CCCCC1)CC(=O)N2C1CC1)c1ccncc1 (single isomer, unassigned; (+)) [Example 7, (+)-4-(N-Cyclohexylglycyl)-1-cyclopropyl-2-oxo-N-[1-(4-pyridinyl)ethyl]-1,2,3,4-tetrahydro-6-quinoxalinecarboxamide]	5 nM
C[C@H](NC(=O)c1ccc2c(c1)N(C(=O)CNCC(C)(C)C)CC(=O)N2C1CC1)c1ccncc1 [Example 23]	18 nM
CC(NC(=O)c1ccc2c(c1)N(C(=O)CNC1CCCCC1)CC(=O)N2C1CC1)c1cccnc1 (stereo not shown) [Example 5, 4-(N-Cyclohexylglycyl)-1-cyclopropyl-2-oxo-N-[1-(3-pyridinyl)ethyl]-1,2,3,4-tetrahydro-6-quinoxalinecarboxamide]	37 nM
C[C@H](NC(=O)c1ccc2c(c1)N(C(=O)CN[C@H]1CC[C@H](O)CC1)CC(=O)N2C1CC1)c1ccncc1 [Example 22, 4-N-[(trans-4-Cyclohexanoyl)glycyl]-1-cyclopropyl-2-oxo-N-[1-S-(4-pyridinyl)-ethyl]-1,2,3,4-tetrahydro-6-quinoxalinecarboxamide]	150 nM
4-N-[(1-S-Methyl-(2-methylbutyl)glycyl]-1-cyclopropyl-2-oxo-N-[1-S-(4-pyridinyl)-ethyl]-1,2,3,4-tetrahydro-6-quinoxalinecarboxamide [Example 25]	6 nM
CC(NC(=O)c1ccc2c(c1)N(C(=O)CNC1CCC1)CC(=O)N2C1CC1)c1cccnc1 (stereo not shown) [Example 2, 4-(N-Cyclobutylglycyl)-1-cyclopropyl-2-oxo-N-[1-(3-pyridinyl)ethyl]-1,2,3,4-tetra-hydro-6-quinoxalinecarboxamide]	1000 nM
O=C(NCc1ccsc1)c1ccc2c(c1)N(C(=O)CNC1CCCCC1)CC(=O)N2C1CC1 [Example 12, 4-(N-Cyclohexylglycyl)-1-cyclopropyl-2-oxo-N-(3-thienylmethyl)-1,2,3,4-tetrahydro-6-quinoxalinecarboxamide]	1800 nM
4-N-[(1-S-Methyl-(2-methylbutyl)glycyl]-1-cyclopropyl-2-oxo-N-[(3-pyridinyl-4-methoxy)ethyl]-1,2,3,4-tetrahydro-6-quinoxalinecarboxamide [Example 26]	16 nM
CC1CCCC(NCC(=O)N2CC(=O)N(C3CC3)c3ccc(C(=O)NC(C)c4cccnc4)cc32)C1 (stereo not shown) [Example 11, 1-Cyclopropyl-4-[N-(3-methylcyclohexyl)glycyl]-2-oxo-N-[1-(3-pyridinyl)ethyl]-1,2,3,4-tetrahydro-6-quinoxalinecarboxamide]	320 nM
C[C@H](NC(=O)c1ccc2c(c1)N(C(=O)CN[C@@H](C)C(C)(C)C)CC(=O)N2C1CC1)c1ccncc1 [Example 24]	32 nM
